Results on 1 compound are retold here after article PMC9959048, “Lipidation of Naturally Occurring α-Helical Antimicrobial Peptides as a Promising Strategy for Drug Design” (International Journal of Molecular Sciences, 2023).

The subject of one data set is E. coli PCM2057. Format: cell-based, Escherichia coli. As to conditions: PCM2057, 24 h. A digest of the protocol:
(§1)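 Strains were precultured in LB (bacteria) or Sabouraud broth (fungi), then exposed to serially diluted lipopeptides in Mueller–Hinton broth at 37 °C or MOPS-buffered RPMI-1640 with 2% glucose at 35 °C for 24 h. Absorbance at 600 nm gave percent inhibition relative to controls.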

The subject of the next data set is S. aureus PCM1650. It is filed as cell-based, Staphylococcus aureus. As to conditions: PCM1650, 24 h. A digest of the protocol:
as §1

For another data set, the system named is S. aureus PCM2054. It is filed as cell-based, Staphylococcus aureus. The following applies: PCM2054, 24 h. A digest of the protocol:
as §1

In the next data set the test system is POPC liposomes. Kind of data set: CD, α-helix content in POPC liposomes. Format: physicochemical. The following applies: 25 °C, peptide 0.15 mg/mL, 1.3 mM POPC.
Another data set deals with POPG LUVs. The experiment in a line: Isothermal titration calorimetry, binding to POPG LUVs. The following applies: ITC, 25 °C, 0.05 or 0.07 mM peptide titrated with 1.3 or 1.8 mM POPG LUVs; one set of sites model (C10-LL-I: two sets of sites, first line).
The test system of another data set is C. krusei CCM8271. Format: cell-based, Candida krusei. As to conditions: CCM8271, 24 h. A digest of the protocol: as §1
The test system of a further data set is C. albicans PCM2566. Format: cell-based, Candida albicans. The following applies: PCM2566, 24 h. An outline of the steps:
as §1

The test system of another data set is S. epidermidis PCM521. Format: cell-based, Staphylococcus epidermidis. As to conditions: PCM521, 24 h. An outline of the steps:
as §1

For the next data set, the system named is S. epidermidis PCM2118. Format: cell-based, Staphylococcus epidermidis. The following applies: PCM2118, 24 h. A digest of the protocol: as §1
Data set [1] is described as follows: Dynamic light scattering of lipopeptide assemblies. Format: physicochemical. As to conditions: DLS, sonicated 10 min, incubated 1 h, 90° side scatter. The protocol: The hydrodynamic diameters of the lipopeptide nanoaggregates were examined by the Litesizer 500 (Anton-Paar GmbH, Graz, Austria) at 25 °C. The measurements were carried out at various lipopeptide concentrations ranging from 0.5 to 2 mM and from 0.25 to 2 mM, in water and PBS, respectively. Two-fold serial dilutions were used to obtain the sequential concentrations. Each sample was sonicated for 10 min followed by incubation for 1 h at 25 °C and transferred to the polystyrene cuvette. The detector was positioned at a side scatter position (90°). The analysis of the obtained results and report generation was performed with KalliopeTM software (Anton-Paar GmbH, Graz, Austria).

The subject of a further data set is S. aureus cells. The experiment in a line: CD, α-helix content in the presence of S. aureus cells. It is filed as physicochemical, Staphylococcus aureus. As to conditions: for α-Helix percentage, Staphylococcus aureus: peptide 0.15 mg/mL, phosphate buffer 10 mM pH 7.0, 2 h incubation. As for the experimental part: CD experiments were carried out at 25 °C using a Jasco J-815 spectropolarimeter in the wavelength range 185–260 nm. The concentration of the lipopeptides was 0.15 mg/mL. The CD spectra were recorded in water, PBS (pH 7.4), 1.3 mM POPC and 1.3 mM POPG. The results are plotted as the mean molar ellipticity per one amino acid residue (MRME, deg cm^2 dmol^−1) as a function of the wavelength (nm). Additionally, we performed a conformational analysis of the selected compounds in the presence of S. aureus cells. […] The mixtures were then incubated for 2 h before recording the CD spectra.
The percentage of the α-helical structure was calculated based on the mean molar ellipticity at 222 nm using the formula: fH=θ222−3000/−36000−3000·100% where θ222 corresponds to the value of the mean molar ellipticity at a wavelength of 222 nm.

In brackets after ≈: the same amount, converted by molar mass. Residues, ends and D or L forms follow the SMILES beside them. *: point of attachment. Octanoyl = CCCCCCCC(=O)*

As to `CCCCCCCC(=O)N[C@H](C(=O)N[C@@H](CCCCN)C(=O)N[C@@H](CCCCN)C(=O)N[C@H](C(=O)N[C@@H](CC(C)C)C(=O)N[C@@H](CO)C(=O)N[C@@H](CCCCN)C(=O)N[C@H](C(=O)N[C@@H](CCCCN)C(=O)N[C@@H](CCCCN)C(=O)N[C@@H](CC(C)C)C(=O)N[C@@H](CC(C)C)C(=O)N[C@@H](CCCCN)C(N)=O)[C@@H](C)CC)[C@@H](C)CC)[C@@H](C)CC` [C8-LK6] (Octanoyl-IKKILSKIKKLLK-NH2), the “MIC, E. coli PCM2057” value in the data set on E. coli PCM2057 is above 50 mg/L. Further, the “MIC, S. aureus PCM1650” value in the data set with S. aureus PCM1650 was found to be 12.5 mg/L (≈ 7.45 µM). In the data set with S. aureus PCM2054, the “MIC, S. aureus PCM2054” value came to 12.5 mg/L (≈ 7.45 µM). Further, the “θ222/θ208, POPC” value in the data set with POPC liposomes is recorded as 0.82. In addition, the “α-Helix percentage, POPC” value in the data set with POPC liposomes (from ellipticity at 222 nm) turned out to be 46%. Besides, the “pKITC, POPG” value on POPG LUVs amounted to 6.31 ± 0.34. For the same compound, in the data set on C. krusei CCM8271, the “MIC, C. krusei CCM8271” value stood at 6.25 mg/L (≈ 3.72 µM). In addition, the “MIC, C. albicans PCM2566” value against C. albicans PCM2566 came to 12.5 mg/L (≈ 7.45 µM). Moreover, the “MIC, S. epidermidis PCM521” value in the data set with S. epidermidis PCM521 worked out at 6.25 mg/L (≈ 3.72 µM). Moreover, the “MIC, S. epidermidis PCM2118” value in the data set on S. epidermidis PCM2118 turned out to be 6.25 mg/L (≈ 3.72 µM). The “hydrodynamic diameter, peak of highest scattering intensity” value stood at 2596 ± 512 nm in data set [1] (0.25 mM in PBS pH 7.4, 25 °C) and 327 ± 102 nm in data set [1] (0.5 mM salt-free aqueous solution, 25 °C). Also, the hydrodynamic diameter in data set [1] (2 mM in PBS pH 7.4, 25 °C) is 3047 ± 750 nm. In addition, the figures for the “θ222/θ208, Staphylococcus aureus” value in the data set on S. aureus cells (OD0.1 bacterial suspension), with S. aureus cells (OD0.2 bacterial suspension) and with S. aureus cells (OD0.5 bacterial suspension) were 1.26, 0.89 and 0.88, respectively. The “α-Helix percentage, Staphylococcus aureus” value with S. aureus cells (OD0.1 bacterial suspension) turned out to be 22%; in the data set on S. aureus cells (OD0.2 bacterial suspension), 17%; with S. aureus cells (OD0.5 bacterial suspension), 18%. The “α-helical structure in the presence of bacterial cells” value in the data set with S. aureus cells (S. aureus, various bacterial cell counts of the inoculum) was 17–22%.
